From patent US20100056516A1 (priority 2006, published 2010)
Read-outs that look alike come from different tables or passages of the source.

Tests used:
[1] = target: HIV-1 reverse transcriptase (RNase H) (Human immunodeficiency virus type 1 group M subtype B, UniProt P04585); assay: ASH assay: RNase H mediated RNA cleavage (ECL format, BioVeris M384); assay type: biochemical
Method: Potency of a substance as an RNase H inhibitors can be determined by measuring its ability prevent RNase H catalyzed cleavage of the RNA strand in a RNA/DNA hybrid duplex substrate. RNase H activity is measured using a substrate generated by annealing the oligoribo-nucleotide 5′-rCrCrUrCrUrCrArArArArArCrArGrGrArGrCrArGrArArArGrArCrArArG (SEQ ID NO:1) to the oligodeoxyribonucleotide 5′-Biotin-[…] (SEQ ID NO:2). […] (SEQ ID NO:3). The resulting double-stranded duplex DNA product is quantitated in an ALPHA screen format using [streptavidin- and anti-fluorescein-coated beads (Packard Bioscience) following the manufacturer's guidelines and reading on a Fusion AlphaScreen instrument. Alternatively, the released 5′-Biotinylated DNA is annealed to a complementary oligodeoxyribonucleotide: 5′-ruthenium-[…] (SEQ ID NO:3). The resulting double-stranded duplex DNA product is quantitated in an ECL screen format using Dynabeads M280 coated with streptavidin (BioVeris Corporation) following the manufacturer's guidelines and reading on a BioVeris M384 Analyzer.

HIV integrase = HIV integrase (Human immunodeficiency virus type 1 group M subtype B, UniProt P04585); assay: integrase strand transfer assay (STA); assay type: biochemical
HXB2 virus = assay: microbe, parasite or virus in culture; assay type: cell-based, HIV
In short: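 Single-cycle infectivity assay in HeLa P4-2 cells measuring inhibition of acute HIV infection, using HXB2 virus.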

HeLa P4-2 cell line = conditions: human
Description: The HeLa P4-2 cell line used in the single cycle HIV infectivity Assay B of Example 270 was also used to determine compound cytotoxicity in the absence of viral infection.

[2] = IC50 in the STA assay, integrase strand transfer
[3] = STA (IC50, μM), integrase strand-transfer assay, Example 269
[4] = Human immunodeficiency virus 1, HXB2, HeLaP4-2, read-out: SCIA-B (IC50, μM)
[5] = Human immunodeficiency virus 1, HXB2, HeLaP4-2, read-out: antiviral IC50 (SCIA-B)
[6] = RNase H mediated RNA cleavage assay, Example 269, read-out: ASH (IC50)
[7] = integrase strand transfer, read-out: IC50 in the STA assay
[8] = integrase strand-transfer assay, Example 269, read-out: STA (IC50)

Row | Structure (SMILES) | IC50 [1] [nM] | IC50 (HIV integrase; [2]) [µM] | IC50 (HIV integrase; [3]) [µM] | IC50 (HXB2 virus; [4]) [µM] | IC50 (HXB2 virus; [5]) [µM] | Cytotoxicity (LD50, μM) (HeLa P4-2 cell line) [µM] | IC50 [1, 6] [nM] | IC50 (HIV integrase; [7]) [µM] | IC50 (HIV integrase; [8]) [µM]
1 | COc1ccc(CNc2cc(=O)n(O)c3ncccc23)cc1 [Example 140, 1-hydroxy-4-[(4-methoxybenzyl)amino]-1,8-naphthyridin-2(1H-one)] | 110 | < 50 | 0.22 | 0.09 | < 100 | 5 |  |  | 
2 | COc1ccccc1CNc1cc(=O)n(O)c2ncccc12 [Example 142, 1-hydroxy-4-[(2-methoxybenzyl)amino]-1,8-naphthyridin-2(1H-one)] | 84 | < 50 | 0.56 | 0.09 | < 100 | 4.4 |  |  | 
3 | O=c1cc(Nc2ccccc2N2CCOCC2)c2cccnc2n1O [Example 147, 1-hydroxy-4-{[2-(4-morpholinyl)phenyl]amino}-1,8-naphthyridin-2(1H-one)] | 17 | < 50 | 0.22 | 0.2 | < 100 | 7.7 |  |  | 
4 | O=c1cc(NCc2ccccn2)c2cccnc2n1O [Example 149, 1-hydroxy-4-[(2-pyridinylmethyl)amino]-1,8-naphthyridin-2(1H-one)] | 140 | < 50 | 0.7 | 0.06 | < 100 | 5.2 |  |  | 
5 | CN1CCN(Cc2cccc(CNc3cc(=O)n(O)c4ncccc34)c2)CC1 [Example 150, 1-hydroxy-4-({3-[(4-methyl-1-piperazinyl)methyl]benzyl}amino)-1,8-naphthyridin-2(1H-one)] | 150 | < 50 | 1.7 | 0.07 | < 100 | 14 |  |  | 
6 | O=c1cc(NCc2cccc(CN3CCOCC3)c2)c2cccnc2n1O [Example 151, 1-hydroxy-4-{[3-(4-morpholinylmethyl)benzyl]amino}-1,8-naphthyridin-2(1H-one)] | 160 | < 50 | 0.23 | 0.13 | < 100 | 15 |  |  | 
7 | O=c1cc(NC2CCN(c3ccccc3)CC2)c2cccnc2n1O [Example 154, 1-hydroxy-4-[(1-phenyl-4-piperidinyl)amino]-1,8-naphthyridin-2(1H-one)] | 200 | < 50 | 1.7 | 0.27 | < 100 | 7.2 |  |  | 
8 | CN(C)CCC(Nc1cc(=O)n(O)c2ncccc12)c1ccccc1 (stereo not drawn) [Example 158, 4-{[3-(dimethylamino)-1-phenylpropyl]amino}-10hydroxy-1,8-naphthyridin-2(1H-one)] | 360 | < 50 | 6.5 | 0.24 | < 100 | 16 |  |  | 
9 | NCc1ccccc1CNc1cc(=O)n(O)c2ncccc12 [Example 163, 4-{[2-(aminomethyl)benzyl]amino}-1-hydroxy-1,8-naphthyridin-2 (1H-one)] | 180 | > 50 | > 50 | 0.14 | < 100 | 50 |  |  | 
10 | NCc1cccc(-c2cc(=O)n(O)c3ncccc23)c1 [Example 172, 4-[3-(aminomethyl)phenyl]-1-hydroxy-1,8-naphthyridin-2(1H)-one] | 140 | < 50 | 0.22 | 0.26 | < 100 | 5.5 |  |  | 
11 | CCOC(=O)c1c(O)c2c(-c3cccc(CN(C)C)c3)ccnc2n(O)c1=O [Example 230, ethyl 5-{3-[(dimethylamino)methyl]phenyl}-1,4-dihydroxy-2-oxo-1,2-dihydro-1,8-naphthyridine-3-carboxylate] |  |  |  | 0.77 | < 100 | >100 | 110 | < 50 | 2.3
12 | NCc1cccc(-c2cccc(Cc3cc(=O)n(O)c4ncccc34)c2)c1 [Example 231, 4-{[3′-(aminomethyl)biphenyl-3-yl]methyl}-1-hydroxy-1,8-naphthyridin-2(1 H)-one] |  |  |  | 0.29 | < 100 | 10 | 340 | < 50 | 1.1
13 | NCc1ccc(-c2ccc(Cc3cc(=O)n(O)c4ncccc34)cc2)cc1 [Example 235, 4-{[4′-(aminomethyl)biphenyl-4-yl]methyl}-1-hydroxy-1,8-naphthyridin-2(1H)-one] | 46 | > 50 | > 50 | 0.13 | < 100 | 7.8 |  |  | 
14 | O=c1cc(Cc2ccc(CCc3ccc(F)cc3F)cc2)c2cccnc2n1O [Example 236, 4-{4-[2-(2,4-difluorophenyl)ethyl]benzyl}-1-hydroxy-1,8-naphthyridin-2(1H)-one] | 120 | < 50 | 0.05 | 0.26 | < 100 | 21 |  |  | 
15 | CCOC(=O)c1ccnc2c1c(-c1ccc(-c3ccc(CN)cc3)cc1)cc(=O)n2O [Example 241, Ethyl 5-[4′-(aminomethyl)biphenyl-4-yl]-8-hydroxy-7-oxo-7,8-dihydro-1,8-naphthyridine-4-carboxylate] |  |  |  | 0.32 | < 100 | 3.8 | 290 | < 50 | 6.2
16 | NCc1ccc(-c2ccc(-c3c(-c4ccccc4)c(=O)n(O)c4ncc(F)cc34)cc2)cc1 [Example 242, 4-[4′-(aminomethyl)biphenyl-4-yl]-6-fluoro-1-hydroxy-3-phenyl-1,8-naphthyridin-2-(1H)-one] | 180 | < 50 | 7.4 | 0.25 | < 100 | 310 |  |  | 
17 | O=c1cc(N2CCc3ccc(-c4cccnc4)cc3C2)c2cccnc2n1O [Example 255, 1-hydroxy-4-(7-pyridin-3-yl-3,4-dihydroisoquino1in-2(1H)-yl)-1,8-naphthyridin-2(1H)-one] | 120 | < 50 | 1.8 | 0.17 | < 100 | 5.1 |  |  | 
18 | NCc1ccc(-c2ccc3c(c2)CN(c2cc(=O)n(O)c4ncccc24)C3)cc1 [Example 257, 4-{5-[4-(aminomethyl)phenyl]-1,3-dihydro-2H-isoindol-2-yl}-1-hydroxy-1,8-naphthyridin-2(1H)-one] | 33 | < 50 | 46 | 0.35 | < 100 | 49 |  |  | 
